Laboratory results published in the NIST ThermoML archive (doi:10.1021/je200811n).

Settings: Hot wire method

F/C=C/C(F)(F)F [trans-1,3,3,3-tetrafluoropropene]
Settings | thermal conductivity [W/m/K]
281.63 K, 15232 kPa, Liquid | 0.08862
281.67 K, 23307 kPa, Liquid | 0.09249
281.68 K, 20203 kPa, Liquid | 0.09077
281.7 K, 445 kPa, Liquid | 0.08035
281.71 K, 5379 kPa, Liquid | 0.08327
281.72 K, 15226 kPa, Liquid | 0.08837
281.76 K, 10284 kPa, Liquid | 0.08598
281.8 K, 5372 kPa, Liquid | 0.08315
281.82 K, 242 kPa, Gas | 0.01258
281.84 K, 200 kPa, Gas | 0.01237
281.86 K, 99 kPa, Gas | 0.01213
281.86 K, 141 kPa, Gas | 0.01223
282.04 K, 23299 kPa, Liquid | 0.09237
282.06 K, 242 kPa, Gas | 0.01258
282.06 K, 20222 kPa, Liquid | 0.09082
282.07 K, 438 kPa, Liquid | 0.07934
282.1 K, 200 kPa, Gas | 0.01234
282.13 K, 98 kPa, Gas | 0.01208
282.13 K, 140 kPa, Gas | 0.01217
282.14 K, 434 kPa, Liquid | 0.07983
282.14 K, 10286 kPa, Liquid | 0.08591
282.15 K, 23304 kPa, Liquid | 0.09213
282.17 K, 20224 kPa, Liquid | 0.09064
282.2 K, 5363 kPa, Liquid | 0.08314
282.21 K, 15223 kPa, Liquid | 0.08817
282.28 K, 10288 kPa, Liquid | 0.08566
282.31 K, 242 kPa, Gas | 0.01258
282.32 K, 5352 kPa, Liquid | 0.08296
282.36 K, 200 kPa, Gas | 0.0123
282.4 K, 138 kPa, Gas | 0.01213
282.52 K, 245 kPa, Gas | 0.01231
282.54 K, 431 kPa, Liquid | 0.07937
282.54 K, 23312 kPa, Liquid | 0.09188
282.58 K, 200 kPa, Gas | 0.01226
282.58 K, 20215 kPa, Liquid | 0.09057
282.63 K, 428 kPa, Liquid | 0.07955
282.64 K, 15228 kPa, Liquid | 0.08812
282.67 K, 145 kPa, Gas | 0.01228
282.69 K, 23303 kPa, Liquid | 0.09187
282.7 K, 10287 kPa, Liquid | 0.0852
282.73 K, 20227 kPa, Liquid | 0.09025
282.76 K, 103 kPa, Gas | 0.01237
282.77 K, 5352 kPa, Liquid | 0.08245
282.79 K, 15232 kPa, Liquid | 0.0878
282.86 K, 10284 kPa, Liquid | 0.08516
282.9 K, 243 kPa, Gas | 0.01231
282.94 K, 5351 kPa, Liquid | 0.08227
282.95 K, 199 kPa, Gas | 0.01234
283.04 K, 425 kPa, Liquid | 0.07934
283.07 K, 143 kPa, Gas | 0.01233
283.13 K, 23323 kPa, Liquid | 0.0916
283.15 K, 424 kPa, Liquid | 0.0789
283.17 K, 20222 kPa, Liquid | 0.08992
283.19 K, 101 kPa, Gas | 0.01241
283.23 K, 15235 kPa, Liquid | 0.08758
283.26 K, 280 kPa, Gas | 0.01243
283.3 K, 242 kPa, Gas | 0.01229
283.33 K, 10277 kPa, Liquid | 0.08464
283.35 K, 20230 kPa, Liquid | 0.08937
283.37 K, 199 kPa, Gas | 0.01232
283.41 K, 5347 kPa, Liquid | 0.08183
283.44 K, 15228 kPa, Liquid | 0.08686
283.5 K, 142 kPa, Gas | 0.01236
283.52 K, 10279 kPa, Liquid | 0.08429
283.62 K, 5351 kPa, Liquid | 0.08173
283.63 K, 100 kPa, Gas | 0.01246
283.64 K, 280 kPa, Gas | 0.0125
283.73 K, 242 kPa, Gas | 0.01238
283.81 K, 200 kPa, Gas | 0.01236
283.96 K, 140 kPa, Gas | 0.01236
284.06 K, 280 kPa, Gas | 0.01255
284.11 K, 98 kPa, Gas | 0.01249
284.18 K, 242 kPa, Gas | 0.01239
284.26 K, 200 kPa, Gas | 0.01238
284.45 K, 139 kPa, Gas | 0.01242
284.62 K, 97 kPa, Gas | 0.0125
291.03 K, 97 kPa, Gas | 0.01317
291.05 K, 154 kPa, Gas | 0.0132
291.06 K, 237 kPa, Gas | 0.01331
291.26 K, 96 kPa, Gas | 0.013
291.28 K, 154 kPa, Gas | 0.01305
291.28 K, 236 kPa, Gas | 0.01323
291.51 K, 234 kPa, Gas | 0.01316
291.52 K, 95 kPa, Gas | 0.01287
291.52 K, 155 kPa, Gas | 0.01297
291.76 K, 232 kPa, Gas | 0.01312
291.79 K, 95 kPa, Gas | 0.01281
291.79 K, 155 kPa, Gas | 0.01291
292.02 K, 231 kPa, Gas | 0.01307
292.06 K, 94 kPa, Gas | 0.01276
292.06 K, 155 kPa, Gas | 0.01287
292.13 K, 314 kPa, Gas | 0.01299
292.21 K, 238 kPa, Gas | 0.01305
292.32 K, 154 kPa, Gas | 0.01313
292.44 K, 97 kPa, Gas | 0.01319
292.5 K, 311 kPa, Gas | 0.01305
292.51 K, 336 kPa, Gas | 0.0131
292.59 K, 236 kPa, Gas | 0.01303
292.72 K, 154 kPa, Gas | 0.01308
292.85 K, 96 kPa, Gas | 0.01324
292.88 K, 308 kPa, Gas | 0.01303
292.89 K, 333 kPa, Gas | 0.01312
292.98 K, 235 kPa, Gas | 0.01313
293.14 K, 154 kPa, Gas | 0.01304
293.29 K, 330 kPa, Gas | 0.01314
293.3 K, 95 kPa, Gas | 0.01322
293.3 K, 306 kPa, Gas | 0.0131
293.32 K, 349 kPa, Gas | 0.01317
293.41 K, 233 kPa, Gas | 0.01314
293.54 K, 400 kPa, Gas | 0.01316
293.58 K, 155 kPa, Gas | 0.01322
293.68 K, 347 kPa, Gas | 0.01318
293.72 K, 327 kPa, Gas | 0.01313

Liquid
Settings | thermal conductivity [W/m/K]
283.15 K | 0.07962
293.15 K | 0.07611
